# Experimental data published in patent publication US20250339409A1, “USES OF PAN BET INHIBITORS” (VYNE THERAPEUTICS INC., priority 2021, published 2025).
# System: bleomycin induced pulmonary fibrosis
# Assay: Bleomycin mice: lung histopathology (H & E, Masson's Trichrome), Hübner-modified Ashcroft score
# Assay type: in vivo, C57BL/6 male mice
# Conditions: for mean score, Hübner-modified Ashcroft scale of 0-8: bleomycin
# Text: Seven mice from each group are randomly submitted for histopathology analysis (Hematoxylin and eosin (H & E) and Masson's Trichrome (MT)). The lungs are trimmed as needed and processed overnight in a Citadel 1000 automated processor by Shandon Scientific. Post-processing, lungs are embedded in paraffin blocks and sectioned in the following fashion: several slides are generated with lung sections in the first 1 mm of tissue, middle portions of the tissue, and finally near the latter third of the tissue in order to glean histological alterations throughout the lung. Sections are cut at […] thickness with a rotary microtome. Several slides per lung (at each depth) are stained with a H & E stain (reagents from Fisher Scientific) and MT Stain (Sigma kit HT15).
# Pathological alterations are evaluated by a pathologist in blind manner (both dosage and treatment programs are unknown to the pathologist). The subacute interstitial inflammation and Agonal Hemorrhage are evaluated mainly based on the H & E staining. Fibrotic modifications are assessed morphologically and semi-quantitatively graded according to the scale defined by Ashcroft and modified by Hübner. Three sections for each lung sample are stained with MT and scored on a scale of 0-8. The final score is expressed as a mean of individual scores observed across all microscopic fields. In order to quantify the distribution of pulmonary fibrosis, the Ashcroft scores are graded in 3 general classes of increasing values: ranging from 0-3 (mild), 4 (moderate) and ≥5 (severe).
# Three sections for each lung sample were stained with H & E and Masson's Trichrome and scored on a Hübner-modified Ashcroft scale of 0-8. Three pictorial representations for each of groups 1-5 are shown in FIGS. 19A-E respectively (100×) and one representation for each of groups 1-5 is shown in FIGS. 19F-J (40×). Histology provides a picture or snapshot of the absence or presence of fibrosis. […] Other groups with higher concentrations of BETi also appeared to lessen bleomycin induced fibrosis but to a lesser degree.
smiles,measurement,setting,value
Cn1cc(-c2cccc(O)c2Oc2ccccc2)c2cc[nH]c2c1=O [BETi1],Mean Histology Score (Hubner-modified Ashcroft),Group 3 Bleo/BETi1 0.06 mg/mL,3.00
same,Mean Histology Score (Hubner-modified Ashcroft),Group 4 Bleo/BETi1 0.6 mg/mL,4.64
same,Mean Histology Score (Hubner-modified Ashcroft),Group 5 Bleo/BETi1 3 mg/mL,5.52
same,"mean score, Hübner-modified Ashcroft scale of 0-8",0.06 mg/mL,3.00
same,"mean score, Hübner-modified Ashcroft scale of 0-8",0.6 mg/mL,4.64
same,"mean score, Hübner-modified Ashcroft scale of 0-8",3 mg/mL,5.52
